The numbers were not newly measured in patent US20080096864A1, “Treatment Of Gastrointestinal Stromal Tumors With Imatinib And Midostaurin” (priority 2003, published 2008), which cites them from elsewhere.

The series deals with advanced GIST. The settings on record: GIST patients on imatinib, one study.

As for `Cc1ccc(NC(=O)c2ccc(CN3CCN(C)CC3)cc2)cc1Nc1nccc(-c2cccnc2)n1` [imatinib], the “primary resistance to imatinib, share of patients” value is reported as 13.7 % of patients.
